From patent US12636285B2 (ViiV Healthcare Company, priority 2019, dated 2026)
Values joined by “and” are separate entries in the source; they are usually repeats but may differ in a detail not shown here. Equal values may be shown once. Read-outs that look alike come from different tables or passages of the source.

What was measured:
[1] = Phase 3 clinical trials of oral rilpivirine (rash); assay type: in vivo, human
Text: According to another aspect of the main embodiment, precautions are taken prior to and during treatment with the Combination. Severe skin and hypersensitivity reactions have been reported during postmarketing experience with oral rilpivirine-containing regimens including cases of Drug Reaction with Eosinophilia and Systemic Symptoms (DRESS). While some skin reactions were accompanied by constitutional symptoms such as fever, other skin reactions were associated with organ dysfunctions, including elevations in hepatic serum biochemistries.

[2] = Lactating rats, exposure of pups through milk; assay type: in vivo, rat; settings: administered to lactating rats
Text: The Centers for Disease Control and Prevention recommends that HIV-1-infected mothers in the United States not breastfeed their infants to avoid risking postnatal transmission of HIV-1 infection. It is not known if the components of the Combination are present in human breast milk, affect human milk production, or have effects on the breastfed infant. […] Animal Data: Cabotegravir: […] Rilpivirine: […]

[3] = QT crossover trial of oral rilpivirine in healthy adults; assay type: in vivo, human
Text: The maximum mean time-matched (95% upper confidence bound) differences in QTcF interval from placebo after baseline correction was 2.0 (5.0) msec (i.e., below the threshold of clinical concern).

[4] = Pharmacokinetic properties of the components of the Combination (Table 6); design: species or system human; settings: in vivo
[5] = Binding to human plasma proteins; assay type: in vitro ADME; settings: read-out: % Bound to human plasma proteins (converted)
[6] = Mass balance studies, single-dose oral [14C] drug; assay type: in vivo, human; settings: single-dose oral [14C] drug
[7] = Multiple-dose pharmacokinetics after monthly IM injections, population PK post-hoc estimates FLAIR and ATLAS; assay type: in vivo, human; settings: 600-mg monthly IM injection
[8] = Pharmacokinetics in specific populations (renal, hepatic impairment, UGT1A1 genotype); assay type: in vivo, human; settings: for exposure higher than matched controls: n=8
Text: No dosage adjustment is necessary for patients with mild to severe renal impairment (not on dialysis).
No dosage adjustment is necessary for patients with mild to moderate hepatic impairment (Child-Pugh Score A or B).
No dose adjustment is required in subjects with UGT1A1 polymorphisms.

[9] = system: human cellular DNA polymerases α, β, and γ; experiment: Inhibition of human cellular DNA polymerases; assay type: biochemical
[10] = system: HIV-1111B; experiment: Antiviral activity in an acutely infected T-cell line; assay type: cell-based, HIV-1; settings: Human immunodeficiency virus 1, read-out: median EC50
[11] = system: HIV-1 group M (subtypes A, B, C, D, F, G, and H) primary isolates; experiment: Antiviral activity against group M primary isolates; assay type: cell-based; settings: Human immunodeficiency virus 1, read-out: EC50 values
[12] = system: group O primary isolates; experiment: Antiviral activity against group O primary isolates; assay type: cell-based, HIV-1; settings: Human immunodeficiency virus 1, read-out: EC50 values
[13] = system: HIV-1; experiment: Antiviral activity in combination with other antivirals, cell culture; assay type: cell-based
[14] = system: HIV-1 with NNRTI substitutions; experiment: Cross-resistance of rilpivirine, NNRTI substitutions; assay type: cell-based
[15] = in vivo
Text: The observed hepatocellular findings in mice may be rodent specific.

[16] = Genotoxicity: bacterial reverse mutation assay, mouse lymphoma assay, in vivo rodent micronucleus assay
[17] = Fertility studies in rats; assay type: in vivo, rat; settings: up to 400 mg/kg/day, dose with maternal toxicity
[18] = cited from earlier work

SMILES: Cc1cc(/C=C/C#N)cc(C)c1Nc1ccnc(Nc2ccc(C#N)cc2)n1 [Rilpivirine, 4-[[4-[[4-[(E)-2-cyanoethenyl]-2,6-dimethylphenyl]amino]-2-pyrimidinyl]amino]benzonitrile]
- Grade 4 rash [1]: no Grade 4 rash was reported
- treatment-related rashes with at least Grade 2 severity, subjects [1]: 3%
- presence in milk [2]: present in milk
- maximum mean time-matched (95% upper confidence bound) difference in QTcF interval from placebo after baseline correction ([3]; oral 25 mg once daily, steady state): 2.0 (5.0) msec
- maximum mean time-matched (95% upper confidence bound) difference in QTcF interval from placebo after baseline correction ([3]; oral 75 mg once daily): 10.7 (15.3) msec
- maximum mean time-matched (95% upper confidence bound) difference in QTcF interval from placebo after baseline correction ([3]; oral 300 mg once daily): 23.3 (28.4) msec
- Tmax ([4]; human, im, intramuscular injection, read-out: Tmax, median (converted)): 3 to 4 days
- half-life ([4]; human, im, intramuscular injection, read-out: t1/2 (absorption rate limited), mean): 91 to 196 days
- Major route of elimination [4]: Metabolism
- Metabolic pathways [4]: CYP3A
- fraction unbound [5]: 0.003
- % of dose excreted as total 14C in feces [6]: 85%
- % of dose excreted as total 14C in urine [6]: 6%
- % of dose excreted as unchanged drug in feces [6]: (26) %
- % of dose excreted as unchanged drug in urine [6]: (<1) %
- Ctrough, geometric mean [7]: 82.2 ng/mL
- AUC ([7]; human, in vivo, read-out: AUCtau, geometric mean): 65600 ng·h/mL
- Cmax ([7]; human, in vivo, read-out: Cmax, geometric mean): 116 ng/mL
- exposure higher than matched controls ([8]; mild hepatic impairment (Child-Pugh Score A)): 47%
- exposure higher than matched controls ([8]; moderate hepatic impairment (Child-Pugh Score B)): 5%
- effect of mild renal impairment on exposure ([8]; oral rilpivirine, population pharmacokinetic analyses): no clinically relevant effect
- inhibition of human cellular DNA polymerases α, β, and γ [9]: does not inhibit
- EC50 [10]: 0.73 nM and 0.00027 µg/mL
- EC50 [11]: 0.07 nM to 1.01 nM and 3e-05 µg/mL to 0.00037 µg/mL
- EC50 [12]: 2.88 nM to 8.45 nM and 0.00106 µg/mL to 0.0031 µg/mL
- antiviral activity combined with listed NNRTIs, NRTIs, protease inhibitors, enfuvirtide, maraviroc, or raltegravir [13]: not antagonistic
- susceptibility with K103N substitution by itself [14]: did not show reduced susceptibility
- carcinogenicity ([15]; mouse): positive for hepatocellular neoplasms
- carcinogenicity ([15]; rat): not carcinogenic
- genotoxicity [16]: not genotoxic
- effects on mating or fertility [17]: no effects on mating or fertility
- prevalence of birth defects in live births ([18]; first trimester exposure to rilpivirine-containing regimens): 0.9%
- prevalence of birth defects in live births ([18]; second/third trimester exposure to rilpivirine-containing regimens): 1.24%
